Tested on: organ cultured adipose tissue (epididymal fat tissue)
Test: Adipose organ culture apoptosis assay (Bax immunostaining)
Assay type: cell-based, rat
Details: seven days incubation, 1 μg TNF-α
Protocol: Epididymal fat tissue was excised and cut into pieces (1 cm^3), and cultured. Briefly, tissue was placed in Dulbecco's Modified Eagle Medium containing 10% fetal bovine serum and penicillin/streptomycin, and incubated at 37° C. Samples (n=3) were injected with PBS, TNF-α protein (1 μg), blank microspheres, or microspheres containing TNF-α (total 1 μg TNF-α) and incubated at 37° C. After 3 or 7 days, the tissue was rinsed 1× with PBS, placed in 3.7% formaldehyde overnight and stored in 70% ethanol prior to sectioning for histology.
Tissue samples were bisected and subjected to butyl processing and paraffinization by standard procedures, at the histology core facility at the University of Michigan School of Dentistry. This process removes all lipids droplets from the tissue, enabling reproducible and rapid staining. […] Samples were counterstained with hematoxylin, imaged using a Nikon Eclipse E800, and Bax positive and negative cells were counted manually from at least 10 randomly chosen fields. Data were subjected to statistical analysis to determine the significance of the difference (P<0.05) among the measured population proportions of Bax positive cells, using a binomial equation. […]

tumor necrosis factor-alpha [TNF-α protein]
Bax staining of adipose tissue: high levels of staining | percentage of Bax positive cells (apoptotic cells) (1 cm^3 explanted tissue): 54%

— patent US20030022856A1, “Method for sustained release local delivery of drugs for ablation of unwanted tissue” (The Regents Of The University of Michigan, priority 2001, published 2003)
